# Measured values published in patent US5114961A, “2,5-diaryl tetrahydrofurans and analogs thereof as PAF antagonists” (Merck & Co., Inc., priority 1990, dated 1992).
# Target: T1, PAF specific receptor binding site (human platelet membranes) (Homo sapiens, UniProt P25105)
# T1 construct: platelet membranes at a drug concentration of 3 nM; from tissue; host or cells: human platelet plasma membranes
# Experiment: Inhibition of [3H]N-methylcarbamoyl-PAF binding to human platelet membranes
# Conditions: drug concentration of 3 nM, trans configuration
# Protocol: The ability of a compound of formula (I) to inhibit the PAF binding to its specific receptor binding site on rabbit or human platelet or PMN plasma membranes was measured by a recently developed assay.
# The inhibition of ^3 [H]-PAF or ^3 [H]-N-methyl carbamoyl-TAF binding to the human or rabbit platelet or PMN plasma membrane by a PAF antagonist of formula (I) was determined by a method employing isotopic labeling and filtration techniques. Generally, a series of Tris-buffered solutions of the selected antagonist at predetermined concentrations were prepared. Each of these solutions contains 1 pmole of ^3 H-PAF, a known amount of the test antagonist, and a sufficient amount of the pH 7.5 Tris-buffer solution (10mM Tris, 0.25% bovine serum albumin, and 150 mM NaCl per ml water) to make the final volume of 1 ml. After adding into a set of test tubes each with 100 μg of the platelet plasma membrane suspension (S. B. Hwang, et. al., Biochemistry, Vol. 22 pp. 4756-4763, 1983) and one of the Tris-buffer solutions described above, the resulting mixture in each test tube was incubated at 0° C. for about one hours or until the reaction was complete. Two control samples, one of which (C1) contains all the ingredients described above except the antagonist and the other (C2) contains C1 plus a 100-fold excess of unlabeled PAF, were also prepared and incubated simultaneously with the test samples. After the incubation was completed, the contents of each test tube were filtered under vacuo through a Whatman GF/C fiberglass filter and the residue washed rapidly several times with a total of 20 ml cold (0°-5° C.) Tris-buffer solution. Each washed residue was then suspended in 10 ml scintillation solution (Aquasol 2, New England Nuclear, Conn.) and the radioactivity was counted in a Packard Tri-Carb 460CD Liquid Scintillation System. Defining the counts from a test sample as "Total binding with antagonist"; the counts from the control sample C1, as "Total binding C1 "; and the counts from the control sample C2 as "non-specific binding C2 ", the percent inhibition of each test antagonist can be determined by the following equations: [formula]
# T1 sequence (P25105 whole entry): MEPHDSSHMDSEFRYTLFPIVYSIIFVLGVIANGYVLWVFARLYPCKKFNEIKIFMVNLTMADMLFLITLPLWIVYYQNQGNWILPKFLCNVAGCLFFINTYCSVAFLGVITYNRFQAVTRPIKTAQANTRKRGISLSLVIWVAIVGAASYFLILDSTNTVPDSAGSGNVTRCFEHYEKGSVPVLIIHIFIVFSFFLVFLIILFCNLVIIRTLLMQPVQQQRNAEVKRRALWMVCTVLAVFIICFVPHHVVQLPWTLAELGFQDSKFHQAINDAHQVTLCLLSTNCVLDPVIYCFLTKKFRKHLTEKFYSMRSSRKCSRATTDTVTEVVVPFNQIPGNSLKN
row,inhibition at 0.003 µM [%],SMILES
1,73,"CCCS(=O)(=O)c1cc([C@H]2CC[C@H](c3cc(OC)c(OC)c(OC)c3)O2)cc(OC)c1OCCSc1ccncc1 (relative stereo) [trans-2-[3-n-Propylsulfonyl-4-{2-(4-pyridylthio)ethoxy}-5-methoxyphenyl]-5-(3,4,5-trimethoxyphenyl) tetrahydrofuran]"
2,73,"CCCS(=O)(=O)c1cc([C@@H]2CC[C@@H](c3cc(OC)c(OC)c(OC)c3)O2)cc(OC)c1OCCS(=O)(=O)c1ccccc1 (relative stereo) [trans-2-[3-n-Propylsulfonyl-4-{2-(Phenylsulfonyl)ethoxy}-5-methoxyphenyl]-5-(3,4,5-trimethoxyphenyl(tetrahydrofuran]"
3,48,CCCS(=O)(=O)c1cc([C@@H]2CC[C@@H](c3cc(OC)c(OC)c(OC)c3)O2)cc(OCCCN2CCOCC2)c1OCCCCCCO (relative stereo) [trans-2-]3-n-Propylsulfonyl-4-(6-hydroxyhexyloxy)-5-{3-(1-morpholino)n-propoxy}phenyl]-5-trimethoxyphenyl)tetrahydrofuran]
4,62,"CCCOc1c(OCCCc2cccnc2)cc([C@H]2CC[C@H](c3cc(OC)c(OC)c(OC)c3)O2)cc1S(=O)(=O)CC(C)=O (relative stereo) [trans-2-{3-(2-Oxopropylsulfonyl)-4-n-propoxy-5-[3-(3-pyridyl)propoxy}phenyl]-5-(3,4,5-trimethoxyphenyl) tetrahydrofuran]"

# Second part, the compound before the results:
row,SMILES,inhibition at 0.003 µM [%]
1,"CCCS(=O)(=O)c1cc([C@@H]2CC[C@@H](c3cc(OC)c(OC)c(OC)c3)O2)cc(OC)c1OCCSc1ncc[nH]1 (relative stereo) [trans-2-[3-n-Propylsulfonyl-4-{2-(2-imidazolthio)ethoxy}-5-methoxyphenyl]-5-(3,4,5-trimethoxyphenyl) tetrahydrofuran]",60
2,"CCCS(=O)(=O)c1cc([C@@H]2CC[C@@H](c3cc(OC)c(OC)c(OC)c3)O2)cc(OC)c1OCCSc1nc[nH]n1 (relative stereo) [trans-2-[3-n-Propylsulfonyl-4-{2-(3-triazolthio)ethoxy}-5-methoxyphenyl]-5-(3,4,5-trimethoxyphenyl) tetrahydrofuran]",23
3,"CCCS(=O)(=O)c1cc([C@@H]2CC[C@@H](c3cc(OC)c(OC)c(OC)c3)O2)cc(OC)c1OCCSc1ccc(-c2nn[nH]n2)cc1 (relative stereo) [trans-2-[3-n-Propylsulfonyl-4-{2-(4-(2-tetrazo)phenylthio)ethoxy}-5-methoxyphenyl]-5-(3,4,5-trimethoxyphenyl)tetrahydrofuran]",52
4,"CCCS(=O)(=O)c1cc([C@H]2CC[C@H](c3cc(OC)c(OC)c(OC)c3)O2)cc(OC)c1OCCSc1ccc(C(=N)N)cc1 (relative stereo) [trans-2-[3-n-Propylsulfonyl-4-{2-(4-amidinophenylthio)ethoxy}-5-methoxyphenyl]-5-(3,4,5-trimethoxyphenyl)tetrahydrofuran]",60
5,"CCCS(=O)(=O)c1cc([C@H]2CC[C@H](c3cc(OC)c(OC)c(OC)c3)O2)cc(OC)c1OCCSc1ccc(C#N)cc1 (relative stereo) [trans-2-[3-n-Propylsulfonyl-4-{2-(4-cyanophenylthio)ethoxy}-5-methoxyphenyl]-5-(3,4,5-trimethoxyphenyl) tetrahydrofuran]",93
6,"CCCS(=O)(=O)c1cc([C@H]2CC[C@H](c3cc(OC)c(OC)c(OC)c3)O2)cc(OC)c1OCCSc1ccc(N(C)C)cc1 (relative stereo) [trans-2-[3-n-Propylsulfonyl-4-{2-(4-dimethylaminophenylthio)ethoxy}-5-methoxyphenyl]-5-(3,4,5-trimethoxyphenyl)tetrahydrofuran]",66
7,"CCCOc1c(OCCCN2CCOCC2)cc([C@@H]2CC[C@@H](c3cc(OC)c(OC)c(OC)c3)O2)cc1S(=O)(=O)CC(C)=O [(-)-(2S,5S)-[3-(2-Oxopropylsulfonyl)-4-n-propoxy-5-{3-(1-morpholino)-n-propoxy}phenyl]-5-(3,4,5-trimethoxyphenyl)tetrahydrofuran]",41
